Residue numbers refer to the chain shown, from its start. In names and notes the source's numbering stands.
Tests used:
root growth = assay: Root growth inhibition assays; assay type: in vivo, Arabidopsis; details: for concentrations of comparable potency in inhibiting root growth: COI1A384V plants; for concentrations with equivalent effect on root growth inhibition: wild-type Col-0 plants
Description: Col-0, segregating COI1-30, transgenic COI1WT, and COI1A384V seeds were surface-sterilized, cold-stratified, and germinated on half-strength MS agar media containing MeJA, COR, or DMSO at the indicated concentrations. Seedlings were grown under long-day light conditions (16-h light at 100 μE·m^2·s, and 8-h dark) for 10-12 days before scanning images of roots. Root lengths were measured using ImageJ software (see website at rsbweb.nih.gov/ij/).

COI1-JAZ9 interaction [1] = assay: Quantitative liquid Y2H assays (Beta-Glo, RLU); assay type: cell-based, Arabidopsis; details: yeast; for COR-dependent COI1-JAZ9 interaction: 1 μM COR; for JA-Ile-dependent COI1-JAZ9 interaction: 10 or 30 μM JA-Ile
Description: (§1) Yeast EGY48 strain carrying the p8Op:LacZ reporter plasmid was co-transformed with pGilda:COI1 (or COI1 mutants) and pB42AD:JAZ9 (or other JAZs) (Clontech). Colonies were selected on SD minimal plates (BD Biosciences) supplemented with the—uracil (U)/-tryptophan (W)/-histidine (H) amino acid drop out solution (Clontech). Yeast colonies were cultured overnight in liquid SD-UWH medium, harvested, washed twice in sterile water, and the absorbance (OD600) of the cultures was adjusted to 0.2 in liquid SD galactose/raffinose-UWH medium (BD Biosciences).
For liquid Y2H assays, cultures were supplemented with designated concentrations of JA-Ile (10 or 30 μM), COR (1 μM), or DMSO. After 16-h incubation with ligands, the liquid cultures were processed through the Beta-Glo Assay system (Promega) for detecting the β-galactosidase activity. […] Protein expression in yeast was detected using anti-LexA antibody (1:5,000; Upstate Biotechnology) for detection of COI1 expression from pGilda vector and anti-HA (1:5,000; Roche Life Science) antibody for detection of JAZ9 expression in pB42AD vector.

JAZ9 gene expression = assay: qPCR of JA-responsive marker gene JAZ9; assay type: in vivo, Arabidopsis; details: 10 μM MeJA or 0.2 μM COR, 3 h; for induction of JAZ9 expression compared with that in COI1-30 plants: COI1A384V L1 line; for JAZ9 gene expression in response to treatment compared with Col-0 or COI1WT plants: COI1A384V lines; for JAZ9 gene expression after application: Col-0 and COI1WT plants
Description: (§2) Col-0 and transgenic seeds were germinated on half-strength MS medium. Five-day-old seedlings were transferred into liquid half-strength MS medium. Segregating coil-30 seeds were germinated on half-strength MS medium with 10 μM MeJA. and MeJA-resistant 5-d-old seedlings were transferred into liquid half-strength MS medium. Next, 10 μM MeJA (Sigma), 0.2 μM COR or 0.1% DMSO were applied to 12-d-old seedlings. Samples were collected after 3 h and total RNA was extracted using Qiagen RNeasy Mini kit (Qiagen). M-MLV Reverse transcriptase (Life Technologies) and SYBR Green master mix (Life Technologies) were used for reverse-transcription and real-time PCR. Primers used were: […]

[2] = test system: COI1WT/A384V-JAZ9 co-receptor; assay: Coreceptor pull-down assay; assay type: binding, Arabidopsis; details: plant-expressed COI1, E. coli-expressed JAZ9
Description: Pull-down assays were performed with protein extracts from 4-mg pCOI1:COI1WT/A384V-4×c-Myc plants and 25 μg recombinant MBP-JAZ9-8×His. Assays were performed in the presence of JA-Ile or COR at various concentrations and incubated for 30 min at 4° C. in the binding buffer (Katsir et al., Proc Natl Acad Sci USA 105(19):7100-7105 (2008)). Eighty microliters of Ni resin (Invitrogen) were added, followed by an additional 15-min incubation period at 4° C. MBP-JAZ9-8×Hisbound Ni resin was washed three times on microcentrifuge spin columns with 0.25 mL binding buffer at 4° C. MBP-JAZ9-8×His was eluted from the resin with 100 μL of 300 mM imidazole. Proteins bound to MBP-JAZ9-8×His were analyzed by immunoblotting for the presence of COI1WT/A384V-4×c-Myc using anti-cMyc antibody. MBP-JAZ9-8×His recovered by the Ni affinity resin was detected by Coomassie blue staining.

COI1-JAZ9 interaction [3] = details: Y2H; Thines et al., Melotto et al.; cited from earlier work
PR1 gene expression = assay: qPCR of SA-responsive gene PR1; assay type: in vivo, Arabidopsis; details: plants expressing the protein
Description: as §2

SID2 gene expression = assay: qPCR of SA-responsive gene SID2; assay type: in vivo, Arabidopsis; details: plants expressing the protein
Description: as §2

Spodoptera exigua = assay: Insect feeding assays; assay type: in vivo
Description: Insect bioassays were performed as described by Herde et al. (Methods Mol Biol 1011:51-61 (2013)). Briefly, eggs of Spodoptera exigua were obtained from Benzon Research, and four neonate Spodoptera exigua larvae were transferred to the center of each 6-wk-old Arabidopsis host plant. Plants were grown under 8-hour light (100 μE·m^2·s) and 16-h dark and covered with cup cages. Larval weights were determined after 9-12 days of feeding.

Pst DC3000 = assay: Bacterial infection assay, dip-inoculation; assay type: in vivo, Pseudomonas syringae pv tomato; details: 3 days after dip-inoculation
Description: The Pseudomonas syringae infection assays in Arabidopsis were performed as described by Yao et al. (Methods Mol Biol 1011:63-81 (2013)). In brief, 4- to 5-wk-old (12-h light/12-h dark) Arabidopsis plants were dip-inoculated with bacterial suspension (1×10^8 cfu/mL Pst DC3000 or Psm ES4326 in 0.25 mM MgCl2 solution with 0.025% Silwet-77) or syringe-infiltrated with bacterial suspension (1×10^6 cfu/mL Pst DC3118 or DB29 in 0.25 mM MgCl2 solution). Bacterial growth was determined by serial dilutions of plant extracts 3 or 4 days after inoculation. Homozygous COI1-30 plants were selected by genotyping before bacterial infection.

COI1-JAZ9 interaction [4] = assay: Y2H assays on plates for protein-protein interaction; assay type: cell-based, Arabidopsis; details: 10 μM COR, yeast
Description: as §1
For Y2H assays on plates, 10-μL culture was spotted onto SD galactose/raffinose-UWH plates with 80 μg/mL X-gal and 10 μM COR (Sigma-Aldrich). Blue color indicated protein-protein interactions after 5-7 days of incubation at 30° C.

CC[C@H]1C=C(C(=O)N[C@@]2(C(=O)O)C[C@H]2CC)[C@H]2CCC(=O)[C@H]2C1 [COR, coronatine]
less effective in COI A384V than in Col-0 and COI1WT (root growth inhibition) (root growth; 0.2 μM COR): about 100 fold
concentrations of comparable potency in inhibiting root growth (root growth): 200 nM
concentrations with equivalent effect on root growth inhibition (root growth): 0.2 µM
concentrations equivalent in promoting the COI1-JAZ9 interaction (COI1-JAZ9 interaction [1]; JA-Ile is a mixture of active and inactive isomers, COR pure): 0.1 µM
induction of JAZ9 expression compared with that in COI1-30 plants (JAZ9 gene expression): eight-fold
JAZ9 gene expression in response to treatment compared with Col-0 or COI1WT plants (JAZ9 gene expression): significantly reduced
JAZ9 gene expression after application (JAZ9 gene expression): induced
higher concentration required for robust formation of the COI1A384V-JAZ9 co-receptor than for the COI1WT-JAZ9 co-receptor [2]: ~100 fold

CC/C=C\C[C@H]1C(=O)CC[C@@H]1CC(=O)O [JA, jasmonic acid]
activity in yeast (COI1-JAZ9 interaction [3]): not active

CC/C=C\CC1C(=O)CCC1CC(=O)OC (stereo not shown) [MeJA, methyl jasmonate]
activity in yeast (COI1-JAZ9 interaction [3]): not active
concentrations of comparable potency in inhibiting root growth (root growth): 100 nM
concentrations with equivalent effect on root growth inhibition (root growth): 10 µM
induction of JAZ9 expression compared with that in COI1-30 plants (JAZ9 gene expression): 38 fold
JAZ9 gene expression in response to treatment compared with Col-0 or COI1WT plants (JAZ9 gene expression): less affected
JAZ9 gene expression after application (JAZ9 gene expression): induced

COI1WT: wild type COI1 (SEQ ID NO:1) expressed in COI1-30-null background; control transgenic lines
expression of PR1 gene (PR1 gene expression): similarly low
expression of SID2 gene (SID2 gene expression): similarly low
weight of larvae compared with Col-0 (Spodoptera exigua; 12-day-old larvae, one-way ANOVA with Dunnett test): No significant difference
average weight of larvae feeding on COI1-30 plants higher than larvae reared on these plants (Spodoptera exigua; S. exigua neonate larvae): six-fold
resistance / susceptibility to Pst DC3000 (bacterial growth and disease symptoms) (Pst DC3000): highly susceptible

B1: R409A: COI1 alanine substitution mutant at R409 (protein)
chain: MEDPDIKRCKLSCVATVDDVIEQVMTYITDPKDRDSASLVCRRWFKIDSETREHVTMALCYTATPDRLSRRFPNLRSLKLKGKPRAAMFNLIPENWGGYVTPWVTEISNNLRQLKSVHFRRMIVSDLDLDRLAKARADDLETLKLDKCSGFTTDGLLSIVTHCRKIKTLLMEESSFSEKDGKWLHELAQHNTSLEVLNFYMTEFAKISPKDLETIARNCRSLVSVKVGDFEILELVGFFKAAANLEEFCGGSLNEDIGMPEKYMNLVFPRKLCRLGLSYMGPNEMPILFPFAAQIRKLDLLYALLETEDHCTLIQKCPNLEVLETRNVIGDRGLEVLAQYCKQLKRLRIERGADEQGMEDEEGLVSQRGLIALAQGCQELEYMAVYVSDITNESLESIGTYLKNLCDFALVLLDREERITDLPLDNGVRSLLIGCKKLRRFAFYLRQGGLTDLGLSYIGQYSPNVRWMLLGYVGESDEGLMEFSRGCPNLQKLEMRGCCFSERAIAAAVTKLPSLRYLWVQGYRASMTGQDLMQMARPYWNIELIPSRRVPEVNQQGEIREMEHPAHILAYYSLAGQRTDCPTTVRVLKEPI
COR-dependent COI1-JAZ9 interaction (COI1-JAZ9 interaction [1]; liquid Y2H): reduced
JA-Ile-dependent COI1-JAZ9 interaction (COI1-JAZ9 interaction [1]; liquid Y2H): reduced
COR-dependent COI1-JAZ9 interaction (COI1-JAZ9 interaction [4]): reduced

B2: A384L: COI1 substitution mutant at A384 (protein)
chain: B1 chain with A384L, A409R
COR-dependent COI1-JAZ9 interaction (COI1-JAZ9 interaction [1]; liquid Y2H): completely disrupted
JA-Ile-dependent COI1-JAZ9 interaction (COI1-JAZ9 interaction [1]; liquid Y2H): completely disrupted

B3: A384G: COI1 substitution mutant at A384 (protein)
chain: B1 chain with A384G, A409R
COR-dependent COI1-JAZ9 interaction (COI1-JAZ9 interaction [1]; liquid Y2H): completely disrupted
JA-Ile-dependent COI1-JAZ9 interaction (COI1-JAZ9 interaction [1]; liquid Y2H): completely disrupted

B4: A384T: COI1 substitution mutant at A384 (protein)
chain: B1 chain with A384T, A409R
COR-dependent COI1-JAZ9 interaction (COI1-JAZ9 interaction [1]; liquid Y2H): completely disrupted
JA-Ile-dependent COI1-JAZ9 interaction (COI1-JAZ9 interaction [1]; liquid Y2H): completely disrupted

B5: COI1A384S: COI1 mutant, alanine 384 substituted with serine (protein)
chain: B1 chain with A384S, A409R
modifications: left off: small tags and cut ends
notes: COI1 mutant, alanine 384 substituted with serine
JA-Ile-dependent COI1-JAZ9 interaction (COI1-JAZ9 interaction [1]; liquid Y2H): reduced

B6: A384C: COI1 substitution mutant at A384 (protein)
chain: B1 chain with A384C, A409R
COR-dependent COI1-JAZ9 interaction (COI1-JAZ9 interaction [1]; liquid Y2H): reduced
JA-Ile-dependent COI1-JAZ9 interaction (COI1-JAZ9 interaction [1]; liquid Y2H): reduced

B7: R496A: COI1 alanine substitution mutant at R496 (protein)
chain: B1 chain with A409R, R496A
differential effect on JA-Ile-dependent vs COR-dependent COI1-JAZ9 interaction (COI1-JAZ9 interaction [1]; liquid Y2H): affect JAIle-dependent interaction more than COR-dependent interaction
COR-dependent COI1-JAZ9 interaction (COI1-JAZ9 interaction [4]): reduced

B8: A384N: COI1 substitution mutant at A384 (protein)
chain: B1 chain with A384N, A409R
COR-dependent COI1-JAZ9 interaction (COI1-JAZ9 interaction [1]; liquid Y2H): completely disrupted
JA-Ile-dependent COI1-JAZ9 interaction (COI1-JAZ9 interaction [1]; liquid Y2H): completely disrupted

B9: A384P: COI1 substitution mutant at A384 (protein)
chain: B1 chain with A384P, A409R
COR-dependent COI1-JAZ9 interaction (COI1-JAZ9 interaction [1]; liquid Y2H): completely disrupted
JA-Ile-dependent COI1-JAZ9 interaction (COI1-JAZ9 interaction [1]; liquid Y2H): completely disrupted

B10: A384D: COI1 substitution mutant at A384 (protein)
chain: B1 chain with A384D, A409R
COR-dependent COI1-JAZ9 interaction (COI1-JAZ9 interaction [1]; liquid Y2H): completely disrupted
JA-Ile-dependent COI1-JAZ9 interaction (COI1-JAZ9 interaction [1]; liquid Y2H): completely disrupted

Reference: patent US10584350B2, “Structurally modified COI1” (Board of Trustees of Michigan State University, priority 2016, dated 2020)
